The numbers were not newly measured in patent US8809210B2, “Low roughness high surface-energy, anti-microbial fabric” (priority 2009, dated 2014), which cites them from elsewhere.

The conditions of the series: when covalently bonded to a surface.

On to `CCCCCCCCCCCCCCCCCC[N+](C)(C)CCC[Si](OC)(OC)OC.[Cl-]` [Si-QAC, 3-(Trimethoxysilyl)-propyldimethyloctadecyl ammonium chloride], for which the antimicrobial activity entry is given as “antimicrobial activity”.
